Data published in publication PMC6402572 (ChemMedChem, 2018).

What was measured:
[1] = system: HCT116 cells with SIRT2 overexpression; conditions: read-out: GI50, anchorage-independent growth of HCT116 cells, SIRT2 expression, soft agar
HCT116 cells = test: Soft agar anchorage-independent growth assay, HCT116 cells; assay type: cell-based; conditions: read-out: GI50, anchorage-independent growth of HCT116 cells, Control, without SIRT2 overexpression
HME-1 cells = test: Cytotoxicity; assay type: cell-based; conditions: read-out: GI50 in HME-1 cells; normal mammary epithelial cell line
SIRT3 = biological target: T1, SIRT3 (Homo sapiens, UniProt Q9NTG7); test: HPLC-based SIRT3 deacetylation assay; assay type: biochemical; conditions: with pre-incubation
T1 sequence (Q9NTG7 1-399): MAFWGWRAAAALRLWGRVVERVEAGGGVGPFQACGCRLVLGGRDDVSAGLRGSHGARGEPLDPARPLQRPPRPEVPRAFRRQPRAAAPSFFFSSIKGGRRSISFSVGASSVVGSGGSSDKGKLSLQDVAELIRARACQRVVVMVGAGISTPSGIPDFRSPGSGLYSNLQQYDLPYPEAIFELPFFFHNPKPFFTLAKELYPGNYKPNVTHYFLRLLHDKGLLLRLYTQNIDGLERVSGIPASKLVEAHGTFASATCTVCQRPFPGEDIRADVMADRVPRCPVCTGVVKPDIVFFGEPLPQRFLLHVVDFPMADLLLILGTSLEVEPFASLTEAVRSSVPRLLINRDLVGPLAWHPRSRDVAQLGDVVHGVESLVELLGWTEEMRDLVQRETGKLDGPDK

MCF10A cells = test: Cytotoxicity; assay type: cell-based; conditions: read-out: GI50 in MCF10A cells; normal mammary epithelial cell line
SIRT6 = SIRT6 (Homo sapiens, UniProt Q8N6T7); test: HPLC-based SIRT6 demyristoylation assay; assay type: biochemical; conditions: with pre-incubation
Chain of SIRT6 (Q8N6T7 whole entry, species assumed): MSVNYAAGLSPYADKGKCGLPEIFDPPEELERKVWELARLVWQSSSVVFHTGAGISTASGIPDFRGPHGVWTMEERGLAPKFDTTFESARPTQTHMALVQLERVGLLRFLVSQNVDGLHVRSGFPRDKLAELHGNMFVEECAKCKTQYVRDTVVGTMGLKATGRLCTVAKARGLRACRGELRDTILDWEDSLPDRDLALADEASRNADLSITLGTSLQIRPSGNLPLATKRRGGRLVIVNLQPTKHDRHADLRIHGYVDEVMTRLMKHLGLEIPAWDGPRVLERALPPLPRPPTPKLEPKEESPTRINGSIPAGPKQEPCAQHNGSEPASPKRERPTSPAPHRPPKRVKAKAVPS

Row | GI50 [1] [µM] | GI50 (HCT116 cells) [µM] | Inhibition of SIRT3 (SIRT3) | Inhibition of SIRT6 (SIRT6) | SMILES | GI50 (HME-1 cells) [µM] | GI50 (MCF10A cells) [µM]
1 | 27.6 | 24.1 | – | – | N#C/C(=C\c1ccc(-c2cc(Cl)ccc2Cl)o1)C(=O)Nc1cccc2ncccc12 [AGK2] | – | –
2 | 58.1 | 55.8 | – | – | Cc1cc(C)nc(SCC(=O)Nc2ncc(Cc3cccc4ccccc34)s2)n1 [SirReal2] | – | –
3 | 24.2 | 13.5 | essentially did not inhibit | essentially did not inhibit | CCCCCCCCCCCCCC(=S)NCCCCC(NC(=O)OCc1ccccc1)C(=O)Nc1ccccc1 (centres unmarked) [TM] | > 50 | > 50
4 | – | 2.1 | – | – | CN(C)CCCCC(=O)Nc1ccc(NC(=S)NC(=O)c2ccc(C(C)(C)C)cc2)cc1 [Tenovin-6] | – | –
